PMC8387413 (Bioorganic chemistry, 2021)
Where two headings read alike, the source gives them in different places.

What was measured:
[1] = tested on: γδ T cells; conditions: read-out: EC50 (γδ T cell stimulation), cited from earlier work
[2] = tested on: γδ T cells; format: cell-based; conditions: Homo sapiens, K562, read-out: ELISA EC50 μM (95% CI)
[3] = tested on: K562 cells; assay: K562 viability; format: cell-based; conditions: for IC50: read-out: Toxicity IC50 μM (95% CI); for direct toxicity (in words): K562 cells, 72 hours of exposure, doses of 100 μM or lower
[4] = tested on: γδ T cells; assay: T cell proliferation: expansion of γδ T cells from human PBMCs, flow cytometry; format: cell-based; conditions: for EC50: Homo sapiens, T-cell
[5] = read-out: Proliferation EC50 μM (95% CI)
[6] = K562 leukemia cells, 72 hours exposure, n=3

## C/C(=C\CCP(=O)(O)O)CO [C-HMBP]
[1]
  EC50: ~4 µM

## COP(=O)(CC/C=C(\C)CO)OCOC(=O)c1ccc(/N=N/c2ccc(N(C)C)cc2)cc1 (stereo not drawn) [Compound 14, ((((E)-5-Hydroxy-4-methylpent-3-en-1-yl)(methoxy)phosphoryl)oxy)methyl 4-((E)-(4-(dimethylamino)phenyl)diazenyl)benzoate]
[2]
  EC50: 0.11 µM
[3]; Homo sapiens, K562, 72 h
  IC50: 36 µM
[3]
  direct toxicity (in words): toxic at 100 μM
[4]; read-out: EC50 for stimulation of γδ T cells
  EC50: 0.11 µM
[4]; [5]
  EC50: 0.099 µM

## COP(=O)(CC/C=C(\C)CO)Oc1ccc2ccc(=O)oc2c1 (stereo not drawn) [Compound 16, (E)-Methyl (2-oxo-2H-chromen-7-yl)(5-hydroxy-4-methylpent-3-en-1-yl)phosphonate]
[3]; [6]
  IC50: > 100 µM

## C/C(=C\CCP(=O)(O)Oc1ccc2ccc(=O)oc2c1)CO [Compound 17]
[3]; [6]
  IC50: > 100 µM

## C/C(=C\CCP(=O)(OCOC(=O)c1ccc(/N=N/c2ccc(N(C)C)cc2)cc1)Oc1ccc2ccc(=O)oc2c1)CO (stereo not drawn) [Compound 18, ((((E)-5-Hydroxy-4-methylpent-3-en-1-yl) ((2-oxo-2H-chromen-7-yl)oxy)phosphoryl)oxy)methyl 4-((E)-(4-(dimethylamino)phenyl)diazenyl)benzoate]
[2]
  EC50: 0.0075 µM
[3]; Homo sapiens, K562, 72 h
  IC50: 27 µM
[3]
  direct toxicity (in words): toxic at 100 μM
[4]; [5]
  EC50: 0.0005 µM

## COc1ccc2cc(C(=O)NCCc3ccc(OP(=O)(CC/C=C(\C)COC(C)=O)OC)cc3)c(=O)oc2c1 (stereo not drawn) [Compound 22, (E)-5-(Methoxy(4-(2-(7-methoxy-2-oxo-2H-chromene-3-carboxamido)ethyl)phenoxy)phosphoryl) -2-methylpent-2-en-1-yl acetate]
[2]
  EC50: > 10 µM
[3]; Homo sapiens, K562, 72 h
  IC50: > 100 µM
[4]; [5]
  EC50: 5.8 µM
[4]; γδ T cells from human PBMCs
  stimulation of proliferation (in words): did not indicate substantial stimulation of proliferation

## COc1ccc2cc(C(=O)NCCc3ccc(OP(=O)(CC/C=C(\C)COC(C)=O)OCOC(=O)c4ccc(/N=N/c5ccc(N(C)C)cc5)cc4)cc3)c(=O)oc2c1 (stereo not drawn) [Compound 23]
[3]; [6]
  IC50: > 100 µM

## C/C(=C\COP(=O)(O)OP(=O)(O)O)CO [HMBPP, (E)-4-hydroxy-3-methyl-but-2-enyl diphosphate]
[1]; in our assays
  EC50: ~0.0005 µM
